Measurements from patent US20220023289A1, “Application Of Pyrroloquinoline Quinone In Preparation Of Medicament Used For Preventing And Treating Acute Altitude Sickness And Acute Altitude Hypoxia Injury” (priority 2018, published 2022).

Key:
[1] = system: rats exposed to acute altitude hypoxia; assay: Liver function of rats exposed to acute altitude hypoxia; type: in vivo, Wistar rat
Method: (§1) Select healthy Wistar rats weight 160-200 g, half female and half male. After feeding for 3 days, these Wistar rats are randomly divided into ten groups according to their body weight, each group has 16±2 rats. The groups are divided as follows: five groups of the hypoxic exposure drug test group, respectively, are given 0.91 mg/kg, 1.83 mg/kg, 3.66 mg/kg, 7.31 mg/kg, and 14.63 mg/kg drugs. […] After continuous intragastric administration for 7 days, the animals in the hypoxic exposure group are simultaneously put into the decompression and hypoxia compound experimental chamber, the hatch is closed, and the pressure is reduced at a speed of 10 m/s. After being raised to an altitude of 6000 m and maintained for 8 hours, the speed in 10 m/s drops is reduced to normal altitude, open the hatch, and then take out the animal, collect blood samples (after standing for 1 hour, the supernatant is centrifuged and stored at −20° C.), and liver tissue samples. Detection indicator includes body weight, serum blood glucose, ATP, lactic acid, endothelin, nitric oxide, SOD, CO, MDA related to oxidative stress, and total protein, albumin, triglycerides, total cholesterol, high-density lipoprotein cholesterol, low-density lipoprotein cholesterol, glutamic pyruvic transaminase, total bilirubin, gluamic oxalacetic transaminase, serum urea nitrogen, creatinine, uric acid, lactate dehydrogenase, creatine kinase, α-hydroxybutyrate dehydrogenase; liver ATP, hepatic glycogen. Except that the formal oxygen control animal group is not put into the decompression and hypoxia compound experimental chamber, other experimental conditions and detection indicators are the same.
(§2) Measure blood glucose, total protein, albumin, triglycerides, total cholesterol, high-density lipoprotein cholesterol, low-density lipoprotein cholesterol, glutamic-pyruvic transaminase, total bilirubin, glutamic oxalacetic transaminase, serum urea nitrogen, creatinine, uric acid, lactate dehydrogenase, creatine kinase, α-hydroxybutyrate dehydrogenase, blood homocysteine by using an automatic blood biochemical analyzer.

[2] = system: rats exposed to acute altitude hypoxia; assay: Renal function in rats exposed to acute altitude hypoxia; type: in vivo, Wistar rat; details: for Creatinine / Uric acid: 0.11 g/kg
Method: as §1, §2

[3] = system: rats exposed to acute altitude hypoxia; assay: Myocardial enzyme activity in rats exposed to acute altitude hypoxia; type: in vivo, Wistar rat; details: for Creatine Kinase / Lactate dehydrogenase / α-hydroxybutyrate dehydrogenase: 0.11 g/kg
Method: as §1, §2

[4] = system: rats with acute altitude hypoxia injury; assay: Oxidative stress indexes of rats with acute altitude hypoxia injury; type: in vivo, Wistar rat
Source text: Operate according to the instructions, and then measure the absorbance value of each tube, and afterwards calculate the content of malondialdehyde in the sample to be tested according to the formula. […] The latter oxidizes hydroxylamine to form nitrite. It appears purplish red under the action of chromogenic agent. Measure its absorbance by a visible light spectrophotometer. When the measured sample contains superoxide dismutase, it has specific inhibitory effect on superoxide anion free radicals, make formed nitrite reduced. […] The superoxide dismutase activity in the tested sample can be calculated by formula calculation. […] The latter can form a stable complex with phenanthrophins and measure its antioxidant capacity by colorimetry. Operate according to the kit instructions, measure the absorbance of each tube at a wavelength of 520 nm, and then calculate the total antioxidant capacity in the sample to be tested according to the formula.

[5] = Rat body weight before the acute decompression hypoxia experiment (intragastric 7 days)
Method: as §1

[6] = Mice weight before hypoxia tolerance test of simulated 10000 m altitude acute decompression; details: 0.16 g/kg
[7] = female rats, hypoxia, 0.11 g/kg
[8] = female rats, normoxia, 0.11 g/kg
[9] = seven days, repeat experiment in male mice

CC(=O)Nc1nnc(S(N)(=O)=O)s1 [Acetazolamide, reference compound]
Glutamic oxalacetic transaminase [1, 7]: 73.20 ± 11.19 U
Glutamic-pyruvic transaminase [1, 7]: 28.40 ± 2.30 U
effect on glutamic-pyruvic transaminase and glutamic oxalacetic transaminase ([1]; female rats, normoxia): no significant effects
Glutamic oxalacetic transaminase [1, 8]: 102.33 ± 11.02 U
Glutamic-pyruvic transaminase [1, 8]: 41.67 ± 10.97 U
effect on glutamic pyruvic transaminase and total bilirubin ([1]; hypoxia exposed male rats): no significant effects
effect on serum glutamic oxalacetic transaminase ([1]; hypoxia exposed male rats): increasing
Glutamic oxalacetic transaminase ([1]; male rats, hypoxia, 0.11 g/kg): 77.57 ± 6.80 U
Glutamic-pyruvic transaminase ([1]; male rats, hypoxia, 0.11 g/kg): 44.00 ± 3.56 U
Total bilirubin ([1]; male rats, hypoxia, 0.11 g/kg): 0.15 ± 0.16 µmol/L
Creatinine ([2]; female rats, hypoxia): 18.78 ± 1.96 µmol/L
Uric acid ([2]; female rats, hypoxia): 77.80 ± 17.31 µmol/L
effect on serum urea nitrogen and creatinine values ([2]; female rats, normoxia): increasing
effect on serum uric acid level ([2]; female rats, normoxia): reducing
Creatinine ([2]; female rats, normoxia): 19.67 ± 0.32 µmol/L
Uric acid ([2]; female rats, normoxia): 82.00 ± 15.10 µmol/L
effect on serum urea nitrogen and creatinine value ([2]; hypoxia exposed female rats): increasing
effect on serum uric acid level ([2]; hypoxia exposed female rats): decreasing
effect on serum creatinine ([2]; hypoxia exposed male rats): no significant effect
effect on serum urea nitrogen content ([2]; hypoxia exposed male rats): increase
effect on serum uric acid level ([2]; hypoxia exposed male rats): can reduce
Creatinine ([2]; male rats, hypoxia): 25.01 ± 2.48 µmol/L
Uric acid ([2]; male rats, hypoxia): 81.86 ± 11.05 µmol/L
Creatine Kinase ([3]; female rats, hypoxia): 503.40 ± 137.62 U/L
Lactate dehydrogenase ([3]; female rats, hypoxia): 534.00 ± 179.23 U/L
α-hydroxybutyrate dehydrogenase ([3]; female rats, hypoxia): 230.20 ± 75.49 U/L
effect on serum lactic dehydrogenase, creatine kinase, α-hydroxybutyrate dehydrogenase activity ([3]; female rats, normoxia): no significant effects
Creatine Kinase ([3]; female rats, normoxia): 697.67 ± 222.15 U/L
Lactate dehydrogenase ([3]; female rats, normoxia): 998.67 ± 285.56 U/L
α-hydroxybutyrate dehydrogenase ([3]; female rats, normoxia): 430.33 ± 134.10 U/L
effect on serum lactic dehydrogenase, creatine kinase, α-hydroxybutyrate dehydrogenase activity ([3]; hypoxia exposed female rats): no significant effects
effect on serum lactate dehydrogenase, creatine kinase, α-hydroxybutyrate dehydrogenase ([3]; hypoxia exposed male rats): has not been found
Creatine Kinase ([3]; male rats, hypoxia): 352.43 ± 138.11 U/L
Lactate dehydrogenase ([3]; male rats, hypoxia): 303.86 ± 174.67 U/L
α-hydroxybutyrate dehydrogenase ([3]; male rats, hypoxia): 126.29 ± 67.51 U/L
Endo Dialdehyde [4, 7]: 13.09 ± 2.13 nmol/L
Superoxide dismutase [4, 7]: 57.11 ± 3.40 U/ml
Total antioxidants [4, 7]: 10.36 ± 0.81 U/ml
Endo Dialdehyde [4, 8]: 14.12 ± 0.32 nmol/L
Superoxide dismutase [4, 8]: 50.88 ± 3.34 U/ml
Total antioxidants [4, 8]: 10.31 ± 0.20 U/ml
effect on serum superoxide dismutase activity ([4]; hypoxia exposed female rats): increasing
effect on serum total antioxidants and malondialdehyde ([4]; hypoxia exposed female rats): no significant effects
effect on serum superoxide dismutase activity ([4]; hypoxia exposed male rats): increasing
effect on serum total antioxidants and malondialdehyde ([4]; male rats): no significant effects
Malonaldehyde ([4]; male rats, hypoxia, 0.11 g/kg): 3.24 ± 1.52 nmol/L
Superoxide dismutase ([4]; male rats, hypoxia, 0.11 g/kg): 182.51 ± 4.46 U/ml
rat body weight Female 1 day ([5]; 0.11 g/kg): 153.4 ± 6.1 g
rat body weight Female 7 days ([5]; 0.11 g/kg): 163.3 ± 6.76 g
rat body weight Male 1 day ([5]; 0.11 g/kg): 172.4 ± 6.8 g
rat body weight Male 7 days ([5]; 0.11 g/kg): 189.1 ± 11.8 g
effect on body weight ([5]; female rats, 7 days): no significant effects
effect on weight ([5]; male rats, 7 days): decreased
Mice weight Female 1 day ([6]; administration for 14 days): 15.24 ± 0.89 g
Mice weight Female 7 days ([6]; administration for 14 days): 19.35 ± 3.12 g
Mice weight Male 1 day ([6]; administration for 14 days): 14.66 ± 1.52 g
Mice weight Male 7 days ([6]; administration for 14 days): 16.29 ± 3.25 g
Mice weight Male 14 days ([6]; administration for 14 days): 21.16 ± 3.61 g
Mice weight Female ([6]; administration for three days): 17.80 ± 0.94 g
Mice weight Male ([6]; administration for three days): 18.29 ± 0.85 g
Mice weight Male 1 day [6, 9]: 19.53 ± 0.93 g
Mice weight Male 7 days [6, 9]: 21.35 ± 2.47 g
Mice weight Female ([6]; single dose test): 17.31 ± 1.22 g
Mice weight Male ([6]; single dose test): 19.47 ± 0.57 g
